Experimental findings from US20150152088A1, “ALKYNYL HETEROAROMATIC COMPOUND AND USE THEREOF” (Nanjing Sanhome Pharmaceutical Co., Ltd., priority 2012, published 2015) are described below.

Experiment [1] has as its target T1, Human ABL1 (T315I) (Homo sapiens, UniProt P00519, T315I).
T1 construct: purchased Millipore Corporation, USA #14-522
The experiment in a line: ABL1 (T315I) kinase activity, [γ-33P] ATP / Abltide radiometric assay. Type of experiment: biochemical. The following applies: ATP 1.0 μM, 120 minutes, room temperature. Here is the method: Kinase activity was determined according to the manufacturer's instructions. Peptide substrate is Abltide ([…]), purchased from Millipore Corporation, USA. Ion exchange chromatography paper P81 was purchased from Whatman Company, UK. [γ-33P] ATP was purchased from Perkin Elmer Company.
[γ-33P] ATP was added at room temperature, with final concentration of 1.0 μM, and the reaction was performed for 120 minutes. 20 μl aliquots were transferred onto the ion exchange chromatography paper P81. The paper was thoroughly washed with a 0.75% phosphoric acid solution three times, and then washed with acetone once. Finally, γ-33P radioactivity was measured.

Experiment [2] has as its system K562 chronic myelogenous leukemia cells. The experiment in a line: MTT assay, in vitro inhibitory activity on cells. Type of experiment: cell-based. An excerpt:
(§1) In this example, MTT assay was used to detect in vitro inhibitory activity of the compounds prepared according to the above examples on the cells. […] AP24534 was purchased from Shanghai Xinkuo Chemical Technology Co., Ltd., China.
(§2) Dimethyl sulfoxide (DMSO) is capable of dissolving formazan in cells, and absorbance value can be measured at a wavelength of 490 nm by an enzyme-linked immunometric meter, which reflects the number of living cells. Within a certain range of the number of cells, the amount of MTT crystals formed is proportional to the number of living cells.
(§3) 1. […] 2. Culturing in a 37° C., 5% CO2 incubator and keeping the cells adhering to the wall of the well. 3. […] 4. Carefully removing the supernatant, gently washing with PBS and discarding the supernatant again. 5. […] 6. Terminating culturing and carefully discarding the medium in each well. 7. Adding 150 μl dimethyl sulfoxide into each well, shaking for 10 minutes at low speed in a shaker, to make crystals fully dissolved. 8. Measuring the absorbance of each well at 490 nm by an enzyme-linked immunometric meter. 9. Calculating IC50 values.

Experiment [3] relates to Saos-2 human osteosarcoma cells. As to the kind of experiment: MTT assay, in vitro inhibitory activity on cells. The note with it: typically 48 hours. It counts as cell-based.
From the text: as §1, §2, §3
In general terms: Tetrazolium dyes change colour on reduction, which living cells bring about.

Experiment [4] has as its system MDA-MB-231 human breast cancer cells. The experiment in a line: MTT assay, in vitro inhibitory activity on cells. Type of experiment: cell-based. The note with it: typically 48 hours.
From the text: as §1, §2, §3

In experiment [5] the test system is Ovcar-3 human ovarian cancer cells. As to the kind of experiment: MTT assay, in vitro inhibitory activity on cells. The note with it: typically 48 hours. Type of experiment: cell-based.
From the text: as §1, §2, §3

Setting [6] is: Homo sapiens, K562, 48 h, typically 48 hours.

Broadly, the IC50 is the concentration that gives 50% inhibition. Lower therefore signals greater potency. For `Cc1ccc(C(=O)Nc2ccc(CN3CC[C@@H](N(C)C)C3)c(C(F)(F)F)c2)cc1C#Cc1cccc2ncncc12` [Example 18, 3-((quinazolin-5-yl)ethynyl)-4-methyl-(R)—N-[4-((3-(dimethylamino)pyrrolidin-1-yl)methyl)-3-trifluoromethylphenyl]benzamide], the concentration for half-maximal inhibition (IC50) was 0.0217 µM in experiment [1] and 0.47 µM in experiment [2] (typically 48 hours). As for `Cc1cn(-c2cc(NC(=O)c3ccc(C)c(C#Cc4cccc5ncncc45)c3)cc(C(F)(F)F)c2)cn1` [Example 20, 3-((quinazolin-5-yl)ethynyl)-4-methyl-N-[3-(4-methyl-1H-imidazol-1-yl)-5-trifluoromethylphenyl]benzamide], the 50% inhibitory concentration (IC50) is 0.0435 µM in experiment [1] and 1.14 µM in experiment [2] (setting [6]). The compound `Cc1ccc(C(=O)Nc2ccc(CN3CCN(C)CC3)c(C(F)(F)F)c2)cc1C#Cc1ccc2ncncc2c1` [Example 2, 3-((quinazolin-6-yl)ethynyl)-4-methyl-N-[4-((4-methylpiperazin-1-yl)methyl)-3-trifluoromethylphenyl]benzamide] registered an IC50 in experiment [2] (setting [6]) of 3.72 µM. This lies in the single-digit micromolar range. The compound `CNc1ncc2c(C#Cc3cc(C(=O)Nc4ccc(CN5CCN(C)CC5)c(C(F)(F)F)c4)ccc3C)cccc2n1` [Example 28, 3-((2-methylaminoquinazolin-5-yl)ethynyl)-4-methyl-N-[(4-((4-methyl)piperazin-1-yl)methyl)-3-trifluoromethylphenyl]benzamide] showed a half-inhibitory concentration (IC50) in experiment [2] (setting [6]) of 15.5 µM.

On to `CNc1ncnc2cc(C#Cc3cc(C(=O)Nc4ccc(CN5CCN(CCO)CC5)c(C(F)(F)F)c4)ccc3C)ccc12` [Example 14, 3-((4-methylaminoquinazolin-7-yl)ethynyl)-4-methyl-N-[4-((4-(2-hydroxyethyl)piperazin-1-yl)methyl)-3-trifluoromethylphenyl]benzamide], for which, in experiment [2] (setting [6]), the IC50 came to 5.68 µM. This IC50 is about 2.7-fold lower than that of the compound before.

On to `CC(=O)Nc1ncc2ccc(C#Cc3cc(C(=O)Nc4ccc(CN5CCN(C)CC5)c(C(F)(F)F)c4)ccc3C)cc2n1` [Example 8, 3-((2-acetylaminoquinazolin-7-yl)ethynyl)-4-methyl-N-[4-((4-methylpiperazin-1-yl)methyl)-3-trifluoromethylphenyl]benzamide], for which, in experiment [2] (setting [6]), the half-maximal inhibitory concentration (IC50) was found to be 1.6 µM. In experiment [2] (typically 48 hours), `Cc1ccc(C(=O)Nc2ccc(CN3CCC(N(C)C)C3)c(C(F)(F)F)c2)cc1C#Cc1cccc2ncncc12` (stereo in doubt) [Example 19, 3-((quinazolin-5-yl)ethynyl)-4-methyl-(S)—N-[4-((3-(dimethylamino)pyrrolidin-1-yl)methyl)-3-trifluoromethylphenyl]benzamide] yielded an IC50 of 8.1 µM. Consider `Cc1cn(-c2cc(NC(=O)c3ccc(F)c(C#Cc4cccc5ncncc45)c3)cc(C(F)(F)F)c2)cn1` [Example 24, 3-((quinazolin-5-yl)ethynyl)-4-fluoro-N-[3-(4-methyl-1H-imidazol-1-yl)-5-trifluoromethylphenyl]benzamide], for which the half-inhibitory concentration (IC50) in experiment [2] (setting [6]) is 11.4 µM.

In experiment [2] (setting [6]), `Cc1ccc(C(=O)Nc2ccc(CN3CCN(C)CC3)c(C(F)(F)F)c2)cc1C#Cc1ccc2c(c1)nc(N)n2C` [Example 22, 3-((2-amino-1-methyl-1H-benzo[d]imidazol-5-yl)ethynyl)-4-methyl-N-[(4-(4-methylpiperazin-1-yl)methyl)-3-trifluoromethylphenyl]benzamide] yielded an IC50 of 8.1 µM. With `CNc1ncc2ccc(C#Cc3cc(C(=O)Nc4ccc(CN5CCN(C)CC5)c(C(F)(F)F)c4)ccc3C)cc2n1` [Example 6, 3-((2-methylaminoquinazolin-7-yl)ethynyl)-4-methyl-N-[4-((4-methylpiperazin-1-yl)methyl)-3-trifluoromethylphenyl]benzamide], the IC50 was 0.73 µM in experiment [2] (setting [6]), 2.1 µM in experiment [3], 7.89 µM in experiment [4] and 8.26 µM in experiment [5]. In turn, `CNc1ncc2ccc(C#Cc3cc(C(=O)Nc4ccc(CN5CCN(CCO)CC5)c(C(F)(F)F)c4)ccc3C)cc2n1` [Example 15, 3-((2-methylaminoquinazolin-7-yl)ethynyl)-4-methyl-N-[4-((4-(2-hydroxyethyl)piperazin-1-yl)methyl)-3-trifluoromethylphenyl]benzamide] registered a half-maximal inhibitory concentration (IC50) in experiment [2] (setting [6]) of 2.9 µM.

With `Cc1ccc(NC(=O)Nc2ccc(CN3CCN(C)CC3)c(C(F)(F)F)c2)cc1C#Cc1ccc2cncnc2c1` [Example 31], the 50% inhibitory concentration (IC50) in experiment [2] (setting [6]) was 1.09 µM. Take `CNC(=O)c1cc(Oc2ccc(NC(=O)c3ccc(C)c(C#Cc4cccc5ncncc45)c3)cc2)ccn1` [Example 29, 3-((quinazolin-5-yl)ethynyl)-4-methyl-N-[4-(2-(N-methylcarboxamido)pyridinyl-4-oxy)phenyl]benzamide]: in experiment [2] (setting [6]), the 50% inhibitory concentration (IC50) amounted to 24.1 µM. Turning to `Cc1ccc(C(=O)Nc2ccc(CN3CCN(CCO)CC3)c(C(F)(F)F)c2)cc1C#Cc1cccc2ncncc12` [Example 16, 3-((quinazolin-5-yl)ethynyl)-4-methyl-N-[4-((4-(2-hydroxyethyl)piperazin-1-yl)methyl)-3-trifluoromethylphenyl]benzamide], the results for the 50% inhibitory concentration (IC50) in experiment [1] and in experiment [2] (setting [6]) were 0.0124 µM and 7.03 µM, respectively.

With `CNc1ncc2c(F)cc(C#Cc3cc(C(=O)Nc4ccc(CN5CCN(C)CC5)c(C(F)(F)F)c4)ccc3C)cc2n1` [Example 7, 3-((5-fluoro-2-methylaminoquinazolin-7-yl)ethynyl)-4-methyl-N-[4-((4-methylpiperazin-1-yl)methyl)-3-trifluoromethylphenyl]benzamide], the IC50 in experiment [2] (setting [6]) worked out at 0.67 µM; in experiment [3], 4.7 µM; in experiment [4] it was 4.14 µM; in experiment [5], 2.35 µM. For the compound `Cc1ccc(C(=O)Nc2ccc(CN3CCN(C)CC3)c(C(F)(F)F)c2)cc1C#Cc1ccc2nccnc2c1` [Example 23], the half-inhibitory concentration (IC50) in experiment [1] worked out at 0.006 µM; in experiment [2] (setting [6]) it was 2.84 µM. As for `Cc1ccc(C(=O)Nc2ccc(CN3CCN(C)CC3)c(C(F)(F)F)c2)cc1C#Cc1cc(F)c2cnc(N)nc2c1` [Example 5, 3-((5-fluoro-2-aminoquinazolin-7-yl)ethynyl)-4-methyl-N-[4-((4-methylpiperazin-1-yl)methyl)-3-trifluoromethylphenyl]benzamide], the concentration for half-maximal inhibition (IC50) worked out at 2.12 µM in experiment [2] (setting [6]), 0.31 µM in experiment [3], 6.71 µM in experiment [4] and 6.52 µM in experiment [5]. Turning to `Cc1ccc(C(=O)Nc2ccc(CN3CCN(C)CC3)c(C(F)(F)F)c2)cc1C#Cc1cccc2nc(N)ncc12` [Example 27, 3-((2-aminoquinazolin-5-yl)ethynyl)-4-methyl-N-[(4-(4-methylpiperazin-1-yl)methyl)-3-trifluoromethylphenyl]benzamide], the IC50 in experiment [2] (setting [6]) came out at 9.05 µM. This counts as single-digit micromolar. Turning to `Cc1ccc(C(=O)Nc2ccc(CN3CCN(C)CC3)c(C(F)(F)F)c2)cc1C#Cc1cccc2[nH]nc(N)c12` [Example 1, 3-(3-amino-1H-indazol-4-yl)ethynyl-4-methyl-N-[4-(4-methylpiperazin-1-yl)methyl-3-trifluoromethylphenyl]benzamide], the values for the IC50 in experiment [1] and in experiment [2] (setting [6]) were 0.00648 µM and 1.87 µM, respectively.

Turning to `Cc1ccc(C(=O)Nc2ccc(CN3CCS(=O)(=O)CC3)c(C(F)(F)F)c2)cc1C#Cc1cccc2ncncc12` [Example 17], in experiment [2] (setting [6]), it took 8.72 µM to reach half-maximal inhibition (IC50). That is a single-digit micromolar value. For `Cc1ccc(C(=O)Nc2ccc(CN3CCN(C)CC3)c(C(F)(F)F)c2)cc1C#Cc1cnc2cccnn12` [AP24534, reference compound], the concentration for half-maximal inhibition (IC50) in experiment [2] (Homo sapiens, K562, typically 48 hours) amounted to 4.8 µM; in experiment [3] it was 0.38 µM; in experiment [4], 0.42 µM; in experiment [5], 1.21 µM. In experiment [2] (setting [6]), `CNC(=O)c1cc(Oc2ccc(NC(=O)c3ccc(C)c(C#Cc4ccc5c(NC)ncnc5c4)c3)cc2)ccn1` [Example 30] returned an IC50 of 89.1 µM. On to `Cc1ccc(C(=O)Nc2ccc(CN3CCC(N(C)C)CC3)c(C(F)(F)F)c2)cc1C#Cc1ccc2nccnc2c1` [Example 21], for which the values for the half-inhibitory concentration (IC50) in experiment [1] and in experiment [2] (setting [6]) were 0.0243 µM and 3.31 µM, respectively.

For the compound `CNc1ncnc2cc(C#Cc3cc(C(=O)Nc4ccc(CN5CCN(C)CC5)c(C(F)(F)F)c4)ccc3C)ccc12` [Example 12, 3-((4-methylaminoquinazolin-7-yl)ethynyl)-4-methyl-N-[4-((4-methylpiperazin-1-yl)methyl)-3-trifluoromethylphenyl]benzamide], the IC50 came out at 0.0317 µM in experiment [1] and 0.28 µM in experiment [2] (setting [6]). Regarding `CC(=O)Nc1ncc2c(F)cc(C#Cc3cc(C(=O)Nc4ccc(CN5CCN(C)CC5)c(C(F)(F)F)c4)ccc3C)cc2n1` [Example 10, 3-((5-fluoro-2-acetylaminoquinazolin-7-yl)ethynyl)-4-methyl-N-[4-((4-methylpiperazin-1-yl)methyl)-3-trifluoromethylphenyl]benzamide], 6.88 µM corresponded to half-maximal inhibition in experiment [2] (setting [6]) (IC50).
